Measurements published in EP0818467B1, “Aligned peptide array and a rational and rapid method for the detection of a binding or interaction site of a protein by using the same” (NEC CORPORATION, priority 1996, dated 1998).

Key:
[1] = test system: regulatory region of protein kinase C (PKC); assay: aligned peptide array membrane reacted with tritium-labeled phorbol ester, autoradiography; type: binding; details: peptide segments of formula (III); phorbol ester labeled with tritium (3H)
Protocol: First of all, an amino acid sequence corresponding to a portion of the regulatory region of protein kinase C (PKC) was divided as shown in the following formula (III), and the corresponding peptide segments were synthesized. Then, an aligned peptide array membrane was prepared in the same manner as given in Example 1. [formula]
(§1) The aligned peptide array membrane was reacted with a phorbol ester labeled with tritium (^3H) and then brought into contact with a photographic film. Thus, the reaction spot was identified by autoradiography.

[2] = test system: third peptide segment, in which one amino acid had been replaced; assay: aligned peptide array membrane with one amino acid replaced in the third peptide segment, autoradiography; type: binding; details: formula (IV): G (glycine) in the third peptide segment replaced by E (glutamate)
Protocol: as §1
In the third peptide segment detected in Example 2, one amino acid was replaced as shown in the following formula (IV). Excepting this modification, detection was carried out in the same manner as in Example 2. [formula]

## CCCCCCCCCCCCCC(=O)O[C@@H]1[C@@H](C)[C@@]2(O)[C@@H](C=C(CO)C[C@]3(O)C(=O)C(C)=C[C@@H]23)[C@@H]2C(C)(C)[C@]12OC(C)=O [phorbol ester]
[1]
  exposure to radiation at the position of the peptide segment: exposure to radiation was observed at the position of the peptide segment corresponding to the third sequence segment of formula (III)
[2]
  exposure to radiation at the position of the peptide segment: no exposure to radiation was observed at the position of the third peptide segment
